Reference: patent US20260125359A1, “HETEROARYL COMPOUNDS AS MULTI-TARGET PROTEIN KINASE INHIBITORS” (FUJIAN HAIXI PHARMACEUTICALS CO., LTD., priority 2023, published 2026)

system: M-NFS-60 cells; assay: M-NFS-60 cell in vitro assay (CCK, 48 h, M-CSF factor medium); assay type: cell-based; conditions: M-NFS-60 cells; read-out: M-NFS-60cellassay IC50
Summary of the method: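 IC50 values were fitted from CCK absorbance (450 nm, 2 h development) after 48 h compound treatment. Cells: M-NFS-60, seeded 2000/well and rested 4 h, grown in medium carrying 25 ng/ml M-CSF factor plus 10% serum; compounds serially diluted in DMSO.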

| Structure (SMILES) | IC50 [nM] |
| --- | --- |
| Cn1cc(-c2cncc(NC3CC(F)c4c(NC(=O)c5ccc(C(F)(F)F)cc5)cccc43)c2)cn1 (centres unmarked) [Compound 71, N-(3-fluoro-1-((5-(1-methyl-1H-pyrazol-4-yl)pyridin-3-yl)amino)-2,3-dihydro-1H-inden-4-yl)-4-(trifluoromethyl)benzamide] | 200 to 500 |
| Cn1cc(-c2cncc(NC3CC(O)c4c(NC(=O)c5ccc(C(F)(F)F)cc5)cccc43)c2)cn1 (centres unmarked) [Compound 71a, N-(3-hydroxy-1-((5-(1-methyl-1H-pyrazol-4-yl)pyridin-3-yl)amino)-2,3-dihydro-1H-inden-4-yl)-4-(trifluoromethyl)benzamide] | 50 to 200 |
| Cc1ncc(-c2cnn(C)c2)cc1O[C@H]1CCc2c(NC(=O)c3ccc(C(F)(F)F)cc3)cccc21 [Compound 72, (S)—N-(1-((2-methyl-5-(1-methyl-1H-pyrazol-4-yl)pyridin-3-yl)oxy)-2,3-dihydro-1H-inden-4-yl)-4-(trifluoromethyl)benzamide] | > 500 |
| Cn1cc2ncc(N[C@H]3CCc4c(C(=O)Nc5cccc(C6CC6)c5)cccc43)cc2n1 [Compound 74a] | < 50 |
| Cn1ncc2ccc(N[C@H]3CCc4c(C(=O)Nc5cccc(C6CC6)c5)cccc43)cc21 [Compound 74b] | > 500 |
| Cn1cc2cc(N[C@H]3CCc4c(C(=O)Nc5cccc(C6CC6)c5)cccc43)cnc2n1 [Compound 74c] | 50 to 200 |
| Cn1cc2cc(N[C@H]3CCc4c(C(=O)Nc5cccc(C6CC6)c5)cccc43)ccc2n1 [Compound 74d] | > 500 |
| Cn1ccc2ncc(N[C@H]3CCc4c(C(=O)Nc5cccc(C6CC6)c5)cccc43)cc21 [Compound 74e] | < 50 |
| Cc1cc2ncc(N[C@H]3CCc4c(C(=O)Nc5cccc(C6CC6)c5)cccc43)cn2n1 [Compound 74f] | < 50 |
| O=C(Nc1cccc(C2CC2)c1)c1cccc2c1CC[C@@H]2Nc1cnc2ccnn2c1 [Compound 74g] | < 50 |
| Cc1cccc(NC(=O)c2cccc3c2CC[C@@H]3Nc2cnc3cn(C)nc3c2)c1F [Compound 74i] | < 50 |
| Cc1cccc(NC(=O)c2cccc3c2CC[C@@H]3Oc2cnc3cnn(C)c3c2)c1F [Compound 75, (S)—N-(2-fluoro-3-methylphenyl)-1-((1-methyl-1H-pyrazolo[4,3-b]pyridin-6-yl)oxy)-2,3-dihydro-1H-indene-4-carboxamide] | < 50 |
| CN(C)Cc1ccc(NC(=O)c2cccc3c2CC[C@@H]3Oc2cnc3cnn(C)c3c2)cc1 [Compound 76aa] | 50 to 200 |
| Cn1ncc2ncc(O[C@H]3CCc4c(C(=O)Nc5cccc(C6CC6)c5)cccc43)cc21 [Compound 76ab] | < 50 |
| COc1cc(NC(=O)c2cccc3c2CC[C@@H]3Oc2cnc3cnn(C)c3c2)ccc1F [Compound 76ad] | < 50 |
| Cn1ncc2ncc(O[C@H]3CCc4c(C(=O)Nc5ccc6c(c5)OC(F)(F)O6)cccc43)cc21 [Compound 76ae] | < 50 |
| Cn1cc2ncc(O[C@H]3CCc4c(C(=O)Nc5cccc(C6CC6)c5)cccc43)cc2n1 [Compound 76af] | < 50 |
| COc1ccc(F)c(NC(=O)c2cccc3c2CC[C@@H]3Oc2cnc3cnn(C)c3c2)c1 [Compound 76ag] | 50 to 200 |
| Cc1ccc(F)c(NC(=O)c2cccc3c2CC[C@@H]3Oc2cnc3cnn(C)c3c2)c1 [Compound 76ah] | < 50 |
| Cc1cccc(NC(=O)c2cccc3c2CC[C@@H]3Oc2cnc3cn(C)nc3c2)c1F [Compound 76aj] | < 50 |
| COc1cccc(NC(=O)c2cccc3c2CC[C@@H]3Oc2cnc3cnn(C)c3c2)c1F [Compound 76ak] | 50 to 200 |
| Cc1cc(NC(=O)c2cccc3c2CC[C@@H]3Oc2cnc3cnn(C)c3c2)ccc1F [Compound 76am] | < 50 |

| Structure (SMILES) | IC50 [nM] |
| --- | --- |
| Cn1ncc2ncc(O[C@H]3CCc4c(C(=O)Nc5ccc(F)c(Cl)c5)cccc43)cc21 [Compound 76an] | < 50 |
| Cn1ncc2ncc(O[C@H]3CCc4c(C(=O)Nc5nn(C)c6ccccc56)cccc43)cc21 [Compound 76ao] | < 50 |
| CN(C)CCOc1cccc(NC(=O)c2cccc3c2CC[C@@H]3Oc2cnc3cnn(C)c3c2)c1 [Compound 76ap] | 50 to 200 |
| COc1cc(NC(=O)c2cccc3c2CC[C@@H]3Oc2cnc3cn(C)nc3c2)ccc1F [Compound 76aq] | < 50 |
| Cc1cc(NC(=O)c2cccc3c2CC[C@@H]3Oc2cnc3cn(C)nc3c2)ccc1F [Compound 76ar] | < 50 |
| Cn1cc2ncc(O[C@H]3CCc4c(C(=O)Nc5ccc(F)c(Cl)c5)cccc43)cc2n1 [Compound 76as] | < 50 |
| Cn1ncc2ncc(O[C@H]3CCc4c(C(=O)Nc5cncc(C6CC6)c5)cccc43)cc21 [Compound 76at] | < 50 |
| Cn1cc2ncc(O[C@H]3CCc4c(C(=O)Nc5ccccc5F)cccc43)cc2n1 [Compound 76au] | < 50 |
| Cn1cc2ncc(O[C@H]3CCc4c(C(=O)Nc5cccc(C(F)(F)F)c5F)cccc43)cc2n1 [Compound 76av] | < 50 |
| Cc1ccc(F)c(NC(=O)c2cccc3c2CC[C@@H]3Oc2cnc3cn(C)nc3c2)c1 [Compound 76ax] | < 50 |
| COc1ccc(F)c(NC(=O)c2cccc3c2CC[C@@H]3Oc2cnc3cn(C)nc3c2)c1 [Compound 76ay] | < 50 |
| COc1cccc(NC(=O)c2cccc3c2CC[C@@H]3Oc2cnc3cn(C)nc3c2)c1F [Compound 76az] | < 50 |
| Cc1cncc(NC(=O)c2cccc3c2CC[C@@H]3Oc2cnc3cn(C)nc3c2)c1 [Compound 76ba] | < 50 |
| Cn1cc2ncc(O[C@H]3CCc4c(C(=O)Nc5cccc(C6CC6)c5F)cccc43)cc2n1 [Compound 76bb] | < 50 |
| Cn1ncc2ncc(O[C@H]3CCc4c(C(=O)Nc5cccc(C6CC6)c5F)cccc43)cc21 [Compound 76bc] | < 50 |
| COc1c(Cl)cccc1NC(=O)c1cccc2c1CC[C@@H]2Oc1cnc2cn(C)nc2c1 [Compound 76be] | 50 to 200 |
| Cn1ncc2ncc(O[C@H]3CCc4c(NC(=O)c5cccc(C6CC6)c5)cccc43)cc21 [Compound 77, (S)-3-cyclopropyl-N-(1-((1-methyl-1H-pyrazolo[4,3-b]pyridin-6-yl)oxy)-2,3-dihydro-1H-inden-4-yl)benzamide] | 50 to 200 |
| Cn1ncc2ncc(O[C@H]3CCc4c(NC(=O)c5cccc(C6CC6)c5)ccc(F)c43)cc21 [Compound 78a] | < 50 |
| Cc1ccc(NC(=O)c2cccc(C3CC3)c2)c2c1[C@@H](Oc1cnc3cnn(C)c3c1)CC2 [Compound 78b] | > 500 |
| Cc1cccc(NC(=O)c2cccc3c2CC[C@@H]3N(C)c2cnc3cnn(C)c3c2)c1F [Compound 79, (S)—N-(2-fluoro-3-methylphenyl)-1-(methyl (1-methyl-1H-pyrazolo[4,3-b]pyridin-6-yl)amino)-2,3-dihydro-1H-indene-4-carboxamide] | < 50 |
| CN(c1cnc2cnn(C)c2c1)[C@H]1CCc2c(C(=O)Nc3cccc(C4CC4)c3)cccc21 [Compound 80a] | < 50 |
| CN(c1cnc2cn(C)nc2c1)[C@H]1CCc2c(C(=O)Nc3cccc(C4CC4)c3)cccc21 [Compound 80b] | < 50 |

| Structure (SMILES) | IC50 [nM] |
| --- | --- |
| CN(C)Cc1ccc(NC(=O)c2cccc3c2CC[C@@H]3N(C)c2cnc3cnn(C)c3c2)cc1F [Compound 80c] | 50 to 200 |
| COc1cc(NC(=O)c2cccc3c2CC[C@@H]3N(C)c2cnc3cnn(C)c3c2)ccc1F [Compound 80d] | < 50 |
| CN(c1cnc2cnn(C)c2c1)[C@H]1CCc2c(C(=O)Nc3cncc(Cl)c3)cccc21 [Compound 80e, (S)—N-(5-chloropyridin-3-yl)-1-(methyl (1-methyl-1H-pyrazolo[4,3-b]pyridin-6-yl)amino)-2,3-dihydro-1H-indene-4-carboxamide] | < 50 |
| CN(C)Cc1cc(NC(=O)c2cccc3c2CC[C@@H]3N(C)c2cnc3cnn(C)c3c2)ccc1F [Compound 80f] | 50 to 200 |
| CN(C)Cc1ccc(NC(=O)c2cccc3c2CC[C@@H]3N(C)c2cnc3cnn(C)c3c2)cc1 [Compound 80g] | 200 to 500 |
| CN(c1cnc2cnn(C)c2c1)[C@H]1CCc2c(C(=O)Nc3nn(C)c4ccccc34)cccc21 [Compound 80h] | < 50 |
| CN(c1cnc2cnn(C)c2c1)[C@H]1CCc2c(C(=O)Nc3ccc4c(c3)OC(F)(F)O4)cccc21 [Compound 80i] | 50 to 200 |
| Cc1cccc(NC(=O)c2cccc3c2CC[C@@H]3N(C)c2cnc3cn(C)nc3c2)c1F [Compound 80j] | < 50 |
| COc1cccc(NC(=O)c2cccc3c2CC[C@@H]3N(C)c2cnc3cn(C)nc3c2)c1F [Compound 80m] | < 50 |
| Cc1ccc(F)c(NC(=O)c2cccc3c2CC[C@@H]3N(C)c2cnc3cn(C)nc3c2)c1 [Compound 80n] | < 50 |
| CN1CCc2nc(NC(=O)c3cccc4c3CC[C@@H]4N(C)c3cnc4cn(C)nc4c3)sc2C1 [Compound 80o] | < 50 |
| COc1ccc(F)c(NC(=O)c2cccc3c2CC[C@@H]3N(C)c2cnc3cn(C)nc3c2)c1 [Compound 80p] | < 50 |
| Cc1cc(NC(=O)c2cccc3c2CC[C@@H]3N(C)c2cnc3cnn(C)c3c2)ccc1F [Compound 80q] | < 50 |
| CN(c1cnc2cnn(C)c2c1)[C@H]1CCc2c(C(=O)Nc3ccc(F)c(Cl)c3)cccc21 [Compound 80r] | < 50 |
| Cc1cc(NC(=O)c2cccc3c2CC[C@@H]3N(C)c2cnc3cn(C)nc3c2)ccc1F [Compound 80s] | < 50 |
| CN(c1cnc2cn(C)nc2c1)[C@H]1CCc2c(C(=O)Nc3ccc(F)c(Cl)c3)cccc21 [Compound 80t] | < 50 |
| CN(c1cnc2cn(C)nc2c1)[C@H]1CCc2c(C(=O)Nc3ccc4c(c3)OC(F)(F)O4)cccc21 [Compound 80u] | < 50 |
| COc1cc(NC(=O)c2cccc3c2CC[C@@H]3N(C)c2cnc3cn(C)nc3c2)ccc1F [Compound 80v] | < 50 |
| CN1CCc2nc(NC(=O)c3cccc4c3CC[C@@H]4N(C)c3cnc4cnn(C)c4c3)sc2C1 [Compound 80w] | 50 to 200 |
| COc1cccc(NC(=O)c2cccc3c2CC[C@@H]3N(C)c2cnc3cnn(C)c3c2)c1F [Compound 80x] | 50 to 200 |
| Cc1ccc(F)c(NC(=O)c2cccc3c2CC[C@@H]3N(C)c2cnc3cnn(C)c3c2)c1 [Compound 80y] | < 50 |
